Laboratory results as given in US20230226092A1, “CANCER […] ON G[…]” (NuCana plc, priority 2015, published 2023).

Tested on: advance progressive cancers that are refractory to, or have relapsed on, all conventional therapies
Assay: ProGem1 dose escalation clinical study: clinical response (RECIST 1.1, tumour markers)
Type: in vivo, human
Set-up: CA125 level / CA19.9 / CEA / CA125 / Tumour volume / CA 15.3 tumour marker / inhibin B: unit not given here
Details: for CA 15.3 tumour marker: 726 at base; for inhibin B: 1,038 prior to study entry
Description: The following data were generated in clinical studies of NUC-1031 in human patients with advance progressive cancers that are refractory to, or have relapsed on, all conventional therapies that have been used to date. The results clearly illustrate the ability of NUC-1031 to successfully treat refractory cancers.
Although the primary objectives of the dose escalation part of the study were to determine the Recommended Phase II Dose (RP2D) and safety profile, secondary objectives included determining the PK profile, however effective treatment of patients with a range of refractory cancers has also been observed as part of this study.
A total of 68 patients have been entered into this dose escalation study, of which 49 were evaluable for clinical response in that they have received at least 2 Cycles of NUC-1031 and were therefore eligible for a RECIST 1.1 assessment.
NUC-1031 was administered as a 5 to 30 minute intravenous slow bolus injection. • Schedule A: NUC-1031 was administered on days 1, 8, 15 of a 4 weekly Cycle. • Schedule B: NUC-1031 was administered on days 1, 5, 8, 12, 15, 19, of a 4 weekly Cycle.
Evaluable patients were patients that received ≥ 2 Cycles of NUC-1031 and were therefore eligible for a RECIST 1.1 assessment at the end of Cycle 2. Where the disease response duration, measured in months, is followed by a “+” this indicates ongoing disease control as of the latest cut-off date.

[1] = evaluable patients n = 49, RECIST 1.1

For “gemcitabine-[phenyl-benzoxy-L-alaninyl)]-phosphate [NUC-1031]”, the “Reduction in tumour volume” value (Patient 037, pancreatic cancer, CT scan on 29th April 2014) was 30%, the “Reduction in tumour volume” value (Patient 037, pancreatic cancer, end of Cycle 2 CT scan) was 18.4% and the CEA (Patient 037, pancreatic cancer, from 536 at baseline) was 42. The CA19.9 (Patient 037, pancreatic cancer, from 15,000 at baseline) was 4,000, the “Response to RECIST” value (Patient 038, ovarian cancer, 900 mg/m^2 weekly) was “Progressive Disease” and the “Increase in tumour volume” value (Patient 038, ovarian cancer, end of Cycle 2 scan) was 25%. For the same substance, the Disease response duration (Patient 040, cholangiocarcinoma) was 4 months, the “CA19.9” value (Patient 040, cholangiocarcinoma, 4th June, from 664 at baseline) was 155 and the “Response to RECIST” value (Patient 040, cholangiocarcinoma, 1,000, then 900 mg/m^2 weekly) was “Stable Disease”. For the same substance, the Tumour volume (Patient 040, cholangiocarcinoma, end of Cycle 2 CT scan, from 85 at base) was 82.1, the Disease response duration (Patient 041, breast cancer) was 4 months and the Symptomatic benefit (Patient 041, breast cancer) was “managed to reduce opioids significantly”. For the same substance, the “CA 15.3 tumour marker” value (Patient 041, breast cancer, 19th May 2014) was 824, the “Response to RECIST” value (Patient 041, breast cancer, 900, then 825 mg/m^2 weekly) was “Stable Disease” and the “CA 15.3 tumour marker” value (Patient 041, breast cancer, at C2) was 845. The “Response to RECIST” value (Patient 042, cholangiocarcinoma, 900 mg/m^2 weekly) was “Progressive Disease”, the “Reduction in tumour volume of primary target lesion” value (Patient 042, cholangiocarcinoma, end of Cycle 2 CT scan) was 9% and the Disease response duration (Patient 043, ovarian cancer) was 13 months. The PET scan finding (Patient 043, ovarian cancer, 7th April 2014) was “stable disease and SUV had gone down in some target tumours”, the CA125 (Patient 043, ovarian cancer, 15th July, from 1,099 at baseline) was 910 and the “Response to RECIST” value (Patient 043, ovarian cancer, 900, then 750 mg/m^2 weekly) was “Stable Disease”. The CA125 (Patient 043, ovarian cancer, beginning of Cycle 2, from 1.099 at baseline) was 783, the “Reduction in tumour volume from baseline” value (Patient 043, ovarian cancer, end of Cycle 6 CT scan) was 10% and the “Volume of fluid drained from pleural effusion” value (Patient 043, ovarian cancer, was 300ml per week) was 150 ml per week. The Disease response duration (Patient 044, lung cancer) was 5 months, the “Response to RECIST” value (Patient 044, lung cancer (adenocarcinoma), 900, then 825 mg/m^2 weekly) was “Stable Disease” and the “Reduction in tumour volume” value (Patient 044, lung cancer, end of Cycle 2 CT scan) was 10%. The Disease response duration (Patient 046, adrenal carcinoma) was 11 months, the “Response to RECIST” value (Patient 046, adrenal carcinoma, 1,000, then 900, 750, 625 mg/m^2 weekly) was “Stable Disease” and the “Reduction in tumour volume from baseline” value (Patient 046, adrenal carcinoma, end of Cycle 6 CT scan) was 12.6%. The Disease response duration (Patient 048, ovarian cancer) was 8 months, the “Response to RECIST” value (Patient 048, ovarian cancer (granulosa cell tumour), 1,000, then 900, 825, 750, 625 mg/m^2 weekly) was “Stable Disease” and the “inhibin B” value (Patient 048, ovarian cancer, August) was 1148. The “inhibin B” value (Patient 048, ovarian cancer, July 2014) was 1,106, the “inhibin B” value (Patient 048, ovarian cancer, September) was 1053 and the PET scan finding (Patient 048, ovarian cancer, end of Cycle 1) was “stable disease and reduction in SUV at target sites”. The Symptomatic benefit (Patient 050 (202), oesophageal cancer) was “improvement in their dysphagia”, the “Response to RECIST” value (Patient 050 (202), oesophageal cancer, 900 mg/m^2 weekly) was “Progressive Disease” and the “Response to RECIST” value (Patient 051 (203), anal cancer, 900 mg/m^2 weekly) was “Progressive Disease”. For the same substance, the Disease response duration (Patient 052 (204), oesophageal cancer) was 5 months, the “Response to RECIST” value (Patient 052 (204), oesophageal cancer, 900, then 825 mg/m^2 weekly) was “Stable Disease” and the “Response to RECIST” value (Patient 053 (205), colon cancer, 900 mg/m^2 weekly) was “Progressive Disease”. For the same substance, the “Response to RECIST” value (Patient 055 (207), ovarian cancer, 900, then 825, 625 mg/m^2 weekly) was “Stable Disease”, the “CA125” value (Patient 055 (207), ovarian cancer, January 2015, 36 at baseline) was 24 and the “Reduction in tumour volume from baseline” value (Patient 055 (207), ovarian cancer, end of Cycle 6 CT scan) was 18%. For the same substance, the Disease response duration (Patient 055 (207), ovarian cancer, ongoing) was ≥ 10 months, the Disease response duration (Patient 057 (209), ovarian cancer) was 5 months and the “Response to RECIST” value (Patient 057 (209), ovarian cancer, 900, then 825, 750 mg/m^2 weekly) was “Stable Disease”. For the same substance, the “Reduction in tumour volume from baseline” value (Patient 057 (209), ovarian cancer, end of Cycle 4 CT scan) was 10%, the Disease response duration (Patient 058 (210), lung cancer) was 4 months and the “Response to RECIST” value (Patient 058 (210), lung cancer, 825, then 750 mg/m^2 weekly) was “Stable Disease”. For the same substance, the Disease response duration (Patient 059 (211), cervical cancer) was 7 months, the “Response to RECIST” value (Patient 059 (211), cervical cancer, 825, then 750, 625 mg/m^2 weekly) was “Stable Disease” and the “Response to RECIST” value (Patient 060 (212), pancreatic cancer, 825 mg/m^2 weekly) was “Progressive Disease”. The Disease response duration (Patient 061 (213), colorectal cancer) was 3 months, the “Response to RECIST” value (Patient 061 (213), colorectal cancer, 825 mg/m^2 weekly) was “Stable Disease” and the “Reduction in tumour volume” value (Patient 061 (213), colorectal cancer, end of Cycle 2 CT scan) was 2%. For the same substance, the Disease response duration (Patient 063 (215), ovarian cancer) was 3 months, the “Response to RECIST” value (Patient 063 (215), ovarian cancer, 825, then 750, 625 mg/m^2 weekly) was “Stable Disease” and the “Response to RECIST” value (Patient 064 (216), trophoblastic cancer, 825 mg/m^2 weekly) was “Progressive Disease”. The “Response to RECIST” value (Patient 066 (218), colorectal cancer, 825, then 750, 625 mg/m^2 weekly) was “Stable Disease”, the “Reduction in tumour volume from baseline” value (Patient 066 (218), colorectal cancer, CT scan on 30th December) was 16% and the Disease response duration (Patient 066 (218), colorectal cancer, ongoing) was ≥ 8 months. The “Increase from baseline (EOS CT scan)” value (Patient 067 (219), osteosarcoma) was 1%, the “Response to RECIST” value (Patient 067 (219), osteosarcoma, 825, then 750 mg/m^2 weekly) was “Stable Disease” and the Disease response duration (Patient 067 (219), osteosarcoma, ongoing) was ≥ 7 months. For the same substance, the “Response to RECIST” value (Patient 068 (220), lung cancer, 825 mg/m^2 weekly) was “Progressive Disease”, the “Response to RECIST” value (Patient 069 (221), colorectal cancer, 825, then 750, 675, 625, 500 mg/m^2 weekly) was “Stable Disease” and the PET scan finding (Patient 069 (221), colorectal cancer, PET scan on 30/10) was “Partial Response”. For the same substance, the “Reduction in tumour volume from baseline” value (Patient 069 (221), colorectal cancer, end of C2 CT scan) was 11%, the “Reduction in tumour volume from baseline” value (Patient 069 (221), colorectal cancer, end of C4 CT scan) was 26% and the Disease response duration (Patient 069 (221), colorectal cancer, ongoing) was ≥ 7 months. For the same substance, the “Clinical examination of metastases” value (Patient 069 (221), colorectal cancer, pre C2 examination) was “cutaneous and sub cutaneous metastases were greatly reduced or almost vanished”, the “Best Overall Response: Partial Responses, patients (%)” value [1] was 5 (10%) and the “Best Overall Response: Progressive Disease, patients (%)” value [1] was 11 (22%). The “Best Overall Response: Stable Disease, patients (%)” value [1] was 33 (67%).
